From patent US20120171123A1, “USES AND COMPOSITIONS FOR TREATMENT OF RHEUMATOID ARTHRITIS” (priority 2006, published 2012)
“And” between values parts separate entries of the source, which are not always exact repeats. Equal values may be shown once. Marks after values point to notes of the source that are not given here.

Tests used:
[1] = tested on: MTX-naïve adult patients with active, early RA (<3 years); test: Study J: clinical remission by DAS28<2.6; type: in vivo, human
Procedure: Clinical remission, defined as DAS28<2.6, is described below in Table 25.
(§1) Secondary endpoints included DAS28<2.6 at year 1 and Major Clinical Response (MCR=ACR70 response for ≧6 continuous months during a 2-year period).
(§2) At 1 and 2 years, the American College of Rheumatology (ACR) responses (ACR20, ACR50, and ACR70), the Disease Activity Score 28 (DAS28), and the change (Δ) in Total Sharp Score (TSS) were determined for all patients. Results were analyzed for the intention-to-treat (ITT) population using imputation for missing data. Clinical remission was defined as DAS28<2.6. The mean ΔTSS values at 1 year and 2 years (N=791) were determined for patients in each ACR response category (ACR20/50/70) and for patients with DAS28<2.6

[2] = tested on: MTX-naïve adult patients with active, early RA (<3 years); test: Study J: treatment emergent adverse events; conditions: 2 years
Description: Study J was a 2-year randomized controlled trial in patients with early RA (disease duration<3 years). Participants in these clinical trials and in other phase Mb studies, were routinely evaluated for safety. Reports of serious adverse events (SAE) were tabulated using MedDRA coding by events per 100-patient-years (E/100PY). SAE rates were compared with respect to disease duration between patients with early (<3 yrs) and long-standing RA.

[3] = tested on: patients with long-standing RA who had inadequate responses to MTX; test: Study 1 (adalimumab + MTX vs placebo + MTX, 12-month RCT plus OLE): radiographic progression (TSS, JE, JSN); type: in vivo, human
Procedure: The study design included a 12 month, double blind, randomized, placebo-controlled trial.
(§3) Patients were grouped into three cohorts based on baseline CRP concentrations: low (<1 mg/dL); intermediate (1-4 mg/dL); and high (>4 mg/dL). Analyses were further conducted in two categories of patients according to their change in CRP concentrations at Week 12: those with a ≧20% decrease in CRP from baseline; or those with a <20% decrease in CRP from baseline. The following efficacy and radiographic measures were analyzed at Week 52 in the three baseline CRP categories and in the two Week 12 change in CRP categories: DAS28, ACR 20/50/70, Health assessment questionnaire (HAQ), and Total Sharp score (TSS).
(§4) Two readers assessed X-rays performed at baseline (start of RCT), 1 year (end of RCT), and 3 years (post 2 years OLE). Changes from baseline in Total Sharp Score (TSS), Joint Erosions (JE), and Joint Space Narrowing (JSN) were calculated. ACR 20, 50, and 70 response rates, as well as TJC and SJC, were also measured.

[4] = tested on: MTX-naïve adult patients with active, early RA (<3 years); test: Study J: individual clinical remission criteria (TJC=0, SJC=0, HAQ=0, morning stiffness=0); type: in vivo, human
Procedure: A total of 799 patients were enrolled. Baseline demographics and clinical characteristics of the patients enrolled in this study are described in Example 7. Baseline demographics and clinical characteristics were similar among the 3 arms, i.e., ada+mtx, ada alone, or mtx alone. […] After 1 and 2 years of therapy, the percentages of patients with ACR90 responses, TJC=0, SJC=0, HAQ=0, morning stiffness=0 minutes, and normal CRP were determined. Data are from the intention-to-treat (ITT) population with imputation used for missing values. Results were compared with the percentages of patients who achieved DAS28<2.6 or a Major Clinical Response (MCR).

[5] = tested on: MTX-naïve adult patients with active, early RA (<3 years); test: Study J (adalimumab 40 mg eow + MTX vs adalimumab alone vs MTX alone, 2 years): ACR20/50/70/90 response and Major Clinical Response; type: in vivo, human; conditions: for Major Clinical Response (ACR70 for ≧6 continuous months): over 2 years
Procedure: This study was a 2-year, double-blind, active-comparator-controlled Phase III study conducted at 149 sites in North America, Europe, and Australia. […] MTX-naïve adult patients with active, early RA (<3 years) were included in the study. Further inclusion criteria included: SJC≧8 and TJC≧10; ESR≧28 mm/hr or CRP≧1.5 mg/dL; and RF-positivity or at least one joint erosion. […] MTX dosages were rapidly optimized to a maximum of 20 mg weekly.
The co-primary endpoints, comparing MTX alone with the combination at 1 year, were the ACR50 response (using non-responder imputation), and inhibition of radiographic progression, as measured by change in total Sharp score (TSS). In this study, the term “Major Clinical Response” (MCR) meant a continuous ACR70 response for 6 or more consecutive months.
The results of this study were evaluated using multiple criteria for clinical remission. This study (Study J) was a 2-year, double-blind, Phase III study.
as §1
Study J was a 2-year, double-blind, Phase III study. […] MTX dosages were rapidly optimized to a maximum of 20 mg weekly. Mean changes in total Sharp score (TSS) were measured for patients who achieved American College of Rheumatology (ACR) response (ACR20, ACR50, and ACR70), as well as clinical remission by Disease Activity Score 28 (DAS28<2.6).
as §2
Patients in the Ada+MTX and the MTX arms were classified according to level of clinical response (non-responder (<ACR20), ACR20, ACR50, or ACR70) and radiographic progression (Yes or No (ΔTSS≦0.5)). The ΔTSS was analyzed overall, and for ACR subgroups. This included determination of mean ΔTSS and probability plots. Analyses used observed data from patients completing 6 months or 2 years of treatment (no imputation).

[6] = tested on: patients with long-standing RA who had inadequate responses to MTX; test: Study 1: ACR20/50/70 response; type: in vivo, human
Procedure: as §3, §4

[7] = tested on: MTX-naïve adult patients with active, early RA (<3 years); test: Study J: subject disposition and withdrawals; conditions: 2 years
[8] = tested on: patients with active rheumatoid arthritis; conditions: Study A (N=2008), 12 weeks; cited from earlier work
[9] = week 52, baseline CRP 1-4 mg/dL
[10] = 6 months, completers, observed data
[11] = week 52 (1 year), non-responder imputation
[12] = 3 years, initially randomized to 40 mg eow

Compound: CN(Cc1cnc2nc(N)nc(N)c2n1)c1ccc(C(=O)N[C@@H](CCC(=O)O)C(=O)O)cc1 [mtx alone, methotrexate]
- clinical remission, DAS28 < 2.6 ([1]; week 52 (1 year)): 21 % of patients
- clinical remission, DAS28 < 2.6 ([1]; week 104 (2 years)): 25 % of patients
- All infectious AE [2]: 119 Events/100-PY
- Demyelination [2]: 0.0 Events/100-PY
- Lymphoma [2]: 0.2 Events/100-PY
- Malignancies [2]: 0.9 Events/100-PY
- Pancytopenia [2]: 0.2 Events/100-PY
- Serious AE [2]: 15.9 Events/100-PY
- Serious Infectious AE [2]: 1.6 Events/100-PY
- Tuberculosis [2]: 0.0 Events/100-PY
- Erosions mean change [3, 9]: 1.7
- TSS mean change ([3]; week 52, baseline CRP 1-4 mg/dL, listed as MTX): 3.0
- TSS mean change ([3]; week 52, baseline CRP 1-4 mg/dL, listed as Mtx): 3.25 (n = 54)
- Erosions mean change ([3]; week 52, baseline CRP <1 mg/dL): 1.5
- TSS mean change ([3]; week 52, baseline CRP <1 mg/dL, listed as MTX): 2.1
- TSS mean change ([3]; week 52, baseline CRP <1 mg/dL, listed as Mtx): 1.8 (n = 71)
- Erosions mean change ([3]; week 52, baseline CRP >4 mg/dL): 2.1
- TSS mean change ([3]; week 52, baseline CRP >4 mg/dL, listed as MTX): 4.5
- TSS mean change ([3]; week 52, baseline CRP >4 mg/dL, listed as Mtx): 4.23 (n = 15)
- HAQ = 0 ([4]; 1 year): 19 % patients
- Morning Stiffness = 0 ([4]; 1 year): 31 % patients
- SJC = 0 ([4]; 1 year): 17 % patients
- TJC = 0 ([4]; 1 year): 14 % patients
- AM (morning) stiffness = 0 ([4]; 2 years): 30 % of patients
- HAQ = 0 ([4]; 2 years): 19 % of patients
- SJC = 0 ([4]; 2 years): 19 % of patients
- TJC = 0 ([4]; 2 years): 21 % of patients
- ACR70 ([5]; 2 years, completers, observed data): 43%
- ACR20 [5, 10]: 79.3%
- ACR50 [5, 10]: 51.6%
- ACR70 [5, 10]: 28.6%
- Major Clinical Response (ACR70 for ≧6 continuous months) [5]: 27 % of patients
- ACR70 ([5]; week 52 (1 year)): 28 % of patients
- ACR90 ([5]; week 52 (1 year)): 13 % of patients
- ACR20 [5, 11]: 63# % of patients
- ACR50 [5, 11]: 46 % of patients
- ACR20 ([5]; week 52 (1 year), non-responder imputation, listed as MTX alone): 63 % of patients
- ACR20 ([5]; week 104 (2 years)): 56 % of patients
- ACR50 ([5]; week 104 (2 years)): 43 % of patients
- ACR70 ([5]; week 104 (2 years)): 28 % of patients
- ACR90 ([5]; week 104 (2 years)): 13 % of patients
- ACR20 [6, 9]: 36 % responders
- ACR50 [6, 9]: 18 % responders
- ACR70 [6, 9]: 9 % responders
- ACR20 ([6]; week 52, baseline CRP <1 mg/dL): 30 % responders
- ACR50 ([6]; week 52, baseline CRP <1 mg/dL): 13 % responders
- ACR70 ([6]; week 52, baseline CRP <1 mg/dL): 6 % responders
- ACR20 ([6]; week 52, baseline CRP >4 mg/dL): 47 % responders
- ACR50 ([6]; week 52, baseline CRP >4 mg/dL): 0 % responders
- ACR70 ([6]; week 52, baseline CRP >4 mg/dL): 0 % responders
- withdrawn, reason AE [7]: 8%
- withdrawn, reason lack of efficacy [7]: 18%

Compound: adalimumab: human anti-TNF mAb (HUMIRA, Abbott Laboratories), described in U.S. Pat. No. 6,090,382 as D2E7
- clinical remission, DAS28 < 2.6 ([1]; week 52 (1 year)): 23 % of patients
- clinical remission, DAS28 < 2.6 ([1]; week 104 (2 years)): 25 % of patients
- Tuberculosis [2]: 0.0 Events/100-PY
- patients with radiographic improvement (change <−0.5 units), total sharp score ([3]; 3 years): 28%
- patients with radiographic improvement, joint erosion score ([3]; 3 years): 29%
- patients with radiographic improvement, joint space narrowing score ([3]; 3 years): 20%
- patients with no radiographic progression, joint erosion score [3, 12]: 71%
- patients with no radiographic progression, joint space narrowing score [3, 12]: 73%
- patients with no radiographic progression, total sharp score [3, 12]: 62%
- HAQ = 0 ([4]; 1 year): 17 % patients
- Morning Stiffness = 0 ([4]; 1 year): 32 % patients
- SJC = 0 ([4]; 1 year): 16 % patients
- TJC = 0 ([4]; 1 year): 18 % patients
- AM (morning) stiffness = 0 ([4]; 2 years): 30 % of patients
- HAQ = 0 ([4]; 2 years): 19 % of patients
- SJC = 0 ([4]; 2 years): 19 % of patients
- TJC = 0 ([4]; 2 years): 15 % of patients
- HAQ (mean), change from baseline [8]: −0.49
- Major Clinical Response (ACR70 for ≧6 continuous months) [5]: 25 % of patients
- ACR70 ([5]; week 52 (1 year)): 26 % of patients
- ACR90 ([5]; week 52 (1 year)): 8 % of patients
- ACR20 [5, 11]: 54 % of patients
- ACR50 [5, 11]: 42 % of patients
- ACR20 ([5]; week 104 (2 years)): 50 % of patients
- ACR50 ([5]; week 104 (2 years)): 37 % of patients
- ACR70 ([5]; week 104 (2 years)): 28 % of patients
- ACR90 ([5]; week 104 (2 years)): 9 % of patients
- ACR20 ([6]; month 12): 69%
- ACR50 ([6]; month 12): 48%
- ACR70 ([6]; month 12): 26%
- ACR20 ([6]; month 24): 63%
- ACR50 ([6]; month 24): 43%
- ACR70 ([6]; month 24): 28%
- ACR20 ([6]; month 36): 58%
- ACR50 ([6]; month 36): 42%
- ACR70 ([6]; month 36): 24% and 23%
- withdrawn, reason lack of efficacy [7]: 19%
